Laboratory results published in ChEMBL document CHEMBL4477224, “Antidiabetic effect, antioxidant activity, and toxicity of 3',4'-Di-O-acetyl-cis-khellactone in Streptozotocin-induced diabetic rats” (Bioorg Med Chem Lett, 2016).
Calls of active or inactive are those of the source. The rule behind the calls is not given here.

Experiments:
[1] = tested on: Rattus norvegicus; experiment: Antidiabetic activity in STZ-induced diabetic Wistar rat blood assessed as HDL level at 15 mg/kg, po administered for 15 days (reference value: 36.31 +/- 0.51 mg/dl); type: functional
[2] = Mutagenicity in Salmonella typhimurium TA98 assessed as mutagenic index at 8.65 uM/plate after 48 hrs in absence of S9 fraction by Ames test relative to control; type: toxicity; settings: salmonella enterica subsp. enterica serovar typhimurium, s9, 48 h
[3] = Mutagenicity in Salmonella typhimurium TA100 assessed as mutagenic index at 8.65 uM/plate after 48 hrs in presence of S9 fraction by Ames test relative to control; type: toxicity, subcellular; settings: salmonella enterica subsp. enterica serovar typhimurium, s9, 48 h
[4] = Toxicity in STZ-induced diabetic Wistar rat liver assessed as macroscopic pathologic lesions at 15 mg/kg, po administered for 15 days; type: organism-based; settings: in vivo, 360 h
[5] = Mutagenicity in Salmonella typhimurium TA102 assessed as mutagenic index at 50 uM/plate after 48 hrs in presence of S9 fraction by Ames test relative to control; type: toxicity, subcellular; settings: salmonella enterica subsp. enterica serovar typhimurium, s9, 48 h
[6] = Mutagenicity in Salmonella typhimurium TA102 assessed as mutagenic index at 17.30 uM/plate after 48 hrs in absence of S9 fraction by Ames test relative to control; type: toxicity; settings: salmonella enterica subsp. enterica serovar typhimurium, s9, 48 h, 17.3 µM
[7] = tested on: Rattus norvegicus; experiment: Antidiabetic activity in STZ-induced diabetic Wistar rat assessed as body weight at 15 mg/kg, po administered on day 7 post STZ challenge measured immediately post dosage (reference value: 319.4 +/- 6.9 g); type: functional
[8] = Mutagenicity in Salmonella typhimurium TA98 assessed as mutagenic index at 50 uM/plate after 48 hrs in absence of S9 fraction by Ames test relative to control; type: toxicity; settings: salmonella enterica subsp. enterica serovar typhimurium, s9, 48 h
[9] = tested on: Rattus norvegicus; experiment: Antidiabetic activity in STZ-induced diabetic Wistar rat assessed as decrease in blood glucose level at 15 mg/kg, po administered for 15 days post STZ challenge measured on day 21 by glucometry relative to control; type: functional; design: scale not given: the % may be the effect or the level left
[10] = Mutagenicity in Salmonella typhimurium TA100 assessed as mutagenic index at 50 uM/plate after 48 hrs in presence of S9 fraction by Ames test relative to control; type: toxicity, subcellular; settings: salmonella enterica subsp. enterica serovar typhimurium, s9, 48 h
[11] = Mutagenicity in Salmonella typhimurium TA98 assessed as mutagenic index at 100 uM/plate after 48 hrs in presence of S9 fraction by Ames test relative to control; type: toxicity, subcellular; settings: salmonella enterica subsp. enterica serovar typhimurium, s9, 48 h
[12] = Mutagenicity in Salmonella typhimurium TA98 assessed as mutagenic index at 100 uM/plate after 48 hrs in absence of S9 fraction by Ames test relative to control; type: toxicity; settings: salmonella enterica subsp. enterica serovar typhimurium, s9, 48 h
[13] = Mutagenicity in Salmonella typhimurium TA100 assessed as mutagenic index at 8.65 uM/plate after 48 hrs in absence of S9 fraction by Ames test relative to control; type: toxicity; settings: salmonella enterica subsp. enterica serovar typhimurium, s9, 48 h
[14] = Mutagenicity in Salmonella typhimurium TA102 assessed as mutagenic index at 100 uM/plate after 48 hrs in presence of S9 fraction by Ames test relative to control; type: toxicity, subcellular; settings: salmonella enterica subsp. enterica serovar typhimurium, s9, 48 h
[15] = Acute toxicity in BALB/c mouse assessed as increase in body weight at 2000 mg/kg, ig after 14 days (reference value: 13.3 +/- 0.3g); type: organism-based; settings: in vivo, po, 336 h
[16] = tested on: Rattus norvegicus; experiment: Antidiabetic activity in STZ-induced diabetic Wistar rat assessed as change in fasting blood glucose level at 15 mg/kg, po administered on day 7 post STZ challenge measured immediately post dosage by glucometry (reference value: 72.90 +/- 5.2 mg/dl); type: functional
[17] = tested on: Rattus norvegicus; experiment: Antidiabetic activity in STZ-induced diabetic Wistar rat assessed as change in fasting blood glucose level at 15 mg/kg, po administered for 15 days post STZ challenge measured on day 21 by glucometry (reference value: 72.90 +/- 5.2 mg/dl); type: functional
[18] = Mutagenicity in Salmonella typhimurium TA102 assessed as mutagenic index at 8.65 uM/plate after 48 hrs in absence of S9 fraction by Ames test relative to control; type: toxicity; settings: salmonella enterica subsp. enterica serovar typhimurium, s9, 48 h
[19] = Mutagenicity in Salmonella typhimurium TA98 assessed as mutagenic index at 34.60 uM/plate after 48 hrs in absence of S9 fraction by Ames test relative to control; type: toxicity; settings: salmonella enterica subsp. enterica serovar typhimurium, s9, 48 h, 34.6 µM
[20] = Mutagenicity in Salmonella typhimurium TA100 assessed as mutagenic index at 34.60 uM/plate after 48 hrs in absence of S9 fraction by Ames test relative to control; type: toxicity; settings: salmonella enterica subsp. enterica serovar typhimurium, s9, 48 h, 34.6 µM
[21] = tested on: Rattus norvegicus; experiment: Antidiabetic activity in STZ-induced diabetic Wistar rat assessed as change in fasting blood glucose level at 15 mg/kg, po administered for 7 days post STZ challenge measured on day 14 by glucometry (reference value: 72.90 +/- 5.2 mg/dl); type: functional
[22] = tested on: Rattus norvegicus; experiment: Antioxidant activity in STZ-induced diabetic Wistar rat liver assessed as SOD level measured per mg of protein at 15 mg/kg, po administered for 15 days by NBT reduction test (reference value: 0.22 +/- 0.06 microM/min); type: functional
[23] = Mutagenicity in Salmonella typhimurium TA100 assessed as mutagenic index at 50 uM/plate after 48 hrs in absence of S9 fraction by Ames test relative to control; type: toxicity; settings: salmonella enterica subsp. enterica serovar typhimurium, s9, 48 h
[24] = Mutagenicity in Salmonella typhimurium TA100 assessed as mutagenic index at 17.30 uM/plate after 48 hrs in absence of S9 fraction by Ames test relative to control; type: toxicity; settings: salmonella enterica subsp. enterica serovar typhimurium, s9, 48 h, 17.3 µM
[25] = tested on: Rattus norvegicus; experiment: Antidiabetic activity in STZ-induced diabetic Wistar rat assessed as effect on hepatocytes surrounding central vein architecture at 15 mg/kg, po administered for 15 days by hematoxylin/eosin staining based microscopy; type: functional, organism-based
[26] = Mutagenicity in Salmonella typhimurium TA98 assessed as mutagenic index at 50 uM/plate after 48 hrs in presence of S9 fraction by Ames test relative to control; type: toxicity, subcellular; settings: salmonella enterica subsp. enterica serovar typhimurium, s9, 48 h
[27] = Acute toxicity in ig dosed BALB/c mouse assessed as mortality measured for 14 days; type: organism-based; settings: in vivo, po
[28] = tested on: Rattus norvegicus; experiment: Antidiabetic activity in STZ-induced diabetic Wistar rat assessed as increase in body weight at 15 mg/kg, po administered for 15 days post STZ challenge measured on day 21; type: functional
[29] = tested on: Rattus norvegicus; experiment: Antioxidant activity in STZ-induced diabetic Wistar rat liver assessed as glutathione peroxidase level measured as NADPH consumption per mg of protein at 15 mg/kg, po administered for 15 days (reference value: 10 +/- 0.6 microM/min); type: functional
[30] = tested on: Rattus norvegicus; experiment: Antidiabetic activity in STZ-induced diabetic Wistar rat assessed as increase in fasting blood glucose level at 15 mg/kg, po administered for 15 days post STZ challenge measured on day 21 by glucometry; type: functional
[31] = tested on: Rattus norvegicus; experiment: Antidiabetic activity in STZ-induced diabetic Wistar rat blood assessed as creatinine level at 15 mg/kg, po administered for 15 days (reference value: 0.56 +/- 0.03 mg/dl); type: functional
[32] = Mutagenicity in Salmonella typhimurium TA100 assessed as mutagenic index at 100 uM/plate after 48 hrs in presence of S9 fraction by Ames test relative to control; type: toxicity, subcellular; settings: salmonella enterica subsp. enterica serovar typhimurium, s9, 48 h
[33] = tested on: Rattus norvegicus; experiment: Antidiabetic activity in STZ-induced diabetic Wistar rat assessed as effect on islets of langerhans morphology at 15 mg/kg, po administered for 15 days by fluorescence microscopy; type: functional, organism-based
[34] = Mutagenicity in Salmonella typhimurium TA102 assessed as mutagenic index at 34.60 uM/plate after 48 hrs in presence of S9 fraction by Ames test relative to control; type: toxicity, subcellular; settings: salmonella enterica subsp. enterica serovar typhimurium, s9, 48 h, 34.6 µM

CC(=O)O[C@@H]1c2c(ccc3ccc(=O)oc23)OC(C)(C)[C@@H]1OC(C)=O (relative stereo) [QUIANHUCOUMARIN D]
Activity [1]: 29.77 mg/dL | Ratio [2]: 0.7 | Ratio [3]: 0.9 | Activity [4]: Non-Toxic | Ratio [5]: 1.2 | Ratio [6]: 0.7 | Activity [7]: 335.3 g | Ratio [8]: 1.1 | Activity [9]: 60.9% | Ratio [10]: 0.9 | Ratio [11]: 1.4 | Ratio [12]: 0.4 | Ratio [13]: 1.3 | Ratio [14]: 0.9 | Activity [15]: 13 g | Activity [16]: 363.2 mg/dL | Activity [17]: 128.3 mg/dL | Ratio [18]: 0.7 | Ratio [19]: 0.8 | Ratio [20]: 1 | Activity [21]: 280.7 mg/dL | Activity [22]: 0.73 U/min | Ratio [23]: 0.9 | Ratio [24]: 1 | Activity [25]: Active | Ratio [26]: 1.1 | LD50 at 336 h [27]: > 2000 mg/kg | Activity [28]: 45.7 g | Activity [29]: 119 µM/min | Activity [30]: 55.35 mg/dL | Activity [31]: 0.51 mg/dL | Ratio [32]: 1 | Activity [33]: Active | Ratio [34]: 1.4
